Paper PMC6814738, “Bacterial MgrB peptide activates chemoreceptor Fpr3 in mouse accessory olfactory system and drives avoidance behaviour” (Nature Communications, 2019)
Peptide text beside a SMILES is read from it. * marks the point of attachment. For = O=C*

Columns and labels:
mouse Fpr3 (Fpr-rs1) [1] = biological target: T1, mouse Fpr3 (Fpr-rs1) (Mus musculus, UniProt O08790); assay: Concentration-response Ca2+ imaging of Fpr3-transfected HEK293T cells (Fig. 2f, h, j); type: cell-based; details: for EC50: Ca2+ responses of Fpr3-transfected HEK293T, Fluo-4/AM, FLIPR, buffer C1 pH 7.2, Fig. 2f, h, j
T1 construct: expressed in transfected cells; host or cells: HEK293T (DSMZ # ACC-635), transient transfection with jetPEI
T1 sequence (O08790 1-351): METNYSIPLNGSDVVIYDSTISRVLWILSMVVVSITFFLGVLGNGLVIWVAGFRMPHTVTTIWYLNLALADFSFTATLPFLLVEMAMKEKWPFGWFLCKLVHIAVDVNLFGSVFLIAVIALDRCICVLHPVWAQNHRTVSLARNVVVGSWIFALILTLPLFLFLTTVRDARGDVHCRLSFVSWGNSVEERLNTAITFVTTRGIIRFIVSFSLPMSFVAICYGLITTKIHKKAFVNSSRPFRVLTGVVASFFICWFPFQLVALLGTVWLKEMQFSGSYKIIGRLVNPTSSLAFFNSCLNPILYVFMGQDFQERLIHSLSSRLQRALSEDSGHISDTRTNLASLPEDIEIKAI
Experimental: (§1) An Fpr3 gene subcloned from genomic DNA of C57BL/6J mice into pcDNA3.1 (Invitrogen) was used in heterologous experiments[21],[80]. HEK293T (DSMZ # ACC-635) cells were seeded at 20–30% confluence on poly-D-lysine-coated (10 µg/ml in PBS) black 96-well µCLEAR-Plates (Greiner Bio-One). Cells were transfected 24 h later using jetPEI™ (Polyplus-transfection SA) according to the manufacturer’s protocol for 96-well transfections. For Ca^2+ imaging experiments, 0.125 µg of DNA plasmid encoding Fpr3 were cotransfected with equal amounts of a plasmid encoding Gα16, a promiscuous G protein α-subunit. Ca^2+ signals to agonist stimulation were recorded 48 h post transfection using the Ca^2+ indicator dye Fluo-4/AM (Molecular Probes) and a fluorescence imaging plate reader (FLIPR) system (Molecular Devices).
We used custom-made peptides with a length of 6–21 amino acids to screen for agonists. Sequences of fMet peptides were designed according to motifs present at the N-termini of 15,125 specific bacterial proteins as annotated in UniProt. Peptides were chemically synthesised, purified, and verified by mass spectroscopy (MALDI-TOF) by commercial suppliers. […] Source, sequence and purity of each peptide are listed in Supplementary Data 1. Lyophilised peptides were routinely dissolved in the Ca^2+ imaging assay buffer C1 (130 mM NaCl, 10 mM HEPES, 5 mM KCl, 2 mM CaCl2, 5 mM glucose, pH 7.2) as 0.2–1 mM stock solutions and kept in small aliquots at −20 °C until use.

mouse Fpr3 (Fpr-rs1) [2] = biological target: T1, mouse Fpr3 (Fpr-rs1); assay: Heterologous expression / high-throughput Ca2+ imaging agonist screen and sequence selectivity of Fpr3 (Fig. 1a, 2c-e, 2g, 2i); type: cell-based; details: 10 µM; Fpr3-transfected HEK293T; Fig. 2g
Experimental: as §1, with “Devices). Cotransfection of a plasmid encoding Gα16 with an empty vector used to subclone Fpr3 gave no agonist-evoked Ca^2+ responses.” for “Devices).”
We used custom-made peptides with a length of 6–21 amino acids to screen for agonists. Sequences of fMet peptides were designed according to motifs present at the N-termini of 15,125 specific bacterial proteins as annotated in UniProt. Peptides were chemically synthesised, purified, and verified by mass spectroscopy (MALDI-TOF) by commercial suppliers. Purity of all peptides was >95%. Source, sequence and purity of each peptide are listed in Supplementary Data 1. Lyophilised peptides were routinely dissolved in the Ca^2+ imaging assay buffer C1 (130 mM NaCl, 10 mM HEPES, 5 mM KCl, 2 mM CaCl2, 5 mM glucose, pH 7.2) as 0.2–1 mM stock solutions and kept in small aliquots at −20 °C until use. […] The sequences of these peptides exist in proteins from the following bacterial strains[21]: Psychromonas ingrahamii that belongs to a marine ice water microbial community, Desulfotomaculum reducens that is found in deep freshwater lakes, and Pseudomonas grimontii, a plant pathogen. As mice are unlikely to encounter these strains in their natural habitat, these findings are probably not of biological relevance.

| Compound | EC50 (mouse Fpr3 (Fpr-rs1) [1]) [nM] | signals in concentration-response, in words (mouse Fpr3 (Fpr-rs1) [1]; Fpr3-transfected HEK293T, Fig. 2h) | Fpr3 activation by MgrB 9-, 12- and 21-residue variants, in words (mouse Fpr3 (Fpr-rs1) [2]) |
| --- | --- | --- | --- |
| CC[C@H](C)[C@H](NC(=O)[C@H](CO)NC(=O)[C@H](Cc1c[nH]c2ccccc12)NC(=O)[C@H](CCCCN)NC(=O)[C@H](Cc1ccccc1)NC(=O)[C@H](CCCCN)NC(=O)[C@H](CCCCN)NC(=O)[C@H](CCSC)NC=O)C(=O)O (For-MKKFKWSI-OH) | 800 | – | – |
| CC[C@H](C)[C@H](NC(=O)CNC(=O)[C@H](CC(C)C)NC(=O)[C@@H](NC(=O)[C@@H](NC(=O)[C@H](Cc1c[nH]c2ccccc12)NC(=O)[C@H](CCCNC(=N)N)NC(=O)[C@H](Cc1ccccc1)NC(=O)[C@H](CCCCN)NC(=O)[C@H](CCCCN)NC(=O)[C@H](CCSC)NC=O)C(C)C)C(C)C)C(=O)N[C@H](C(=O)O)C(C)C (For-MKKFRWVVLGIV-OH) | 210 | – | – |
| f-MKKFRWVVLGIVVVVCLLLWAQ [21-mer peptide] | – | No signals were obtained | failed to activate Fpr3 |
